Test results published in patent US10995101B2, “2-oxo-thiazole derivatives as A2A inhibitors and compounds for use in the treatment of cancers” (iTeos Therapeutics SA, priority 2017, dated 2021).

Legend:
[1] = target: A2A receptor (Homo sapiens, UniProt P29274); assay: Inhibition of cAMP production in HEK cells; assay type: cell-based; details: HEK-293 cells with A2A receptor
Method: When the A2A receptor is activated, is induces the production of cAMP.
HEK-293 cells with a stable transfection of A2A receptor were bought from PerkinElmer® (# ES-011-C). […] Fresh media without the selection marker was added on the day immediately before the experiment to stop selection pressure.
Stimulation buffer b) mimics the human situation by increasing the amount of albumin present in the assay.
Compounds of the present invention were diluted 100× in either of the buffers depending on the assay performed. […] The total volume of the reaction was 20 μl (10 μl of cells, 5 μl of antagonist and 5 μl of agonist). The reaction was finalized by adding 10 μl of 4× EU-cAMP tracer working solution and 10 μl of 4× ULight-anti-cAMP working solution. The TR-FRET signal was measured after 1 hour using a Spectramax Paradigm (Molecular Devices).

[2] = in vitro; details: human, Caco-2, pH 7.4
[3] = IC50 (nM) (3 nM NECA as agonist, 0.1% BSA), 3 nM NECA as agonist, 0.1% BSA
[4] = IC50 (nM) (5 nM NECA as agonist, 2% HSA), 5 nM NECA as agonist, 2% HSA
[5] = IC50 (nM) (5 μM Adenosine as agonist, 2.0% HSA), 5 μM Adenosine as agonist, 2.0% HSA

A2A receptor, sequence (P29274 whole entry): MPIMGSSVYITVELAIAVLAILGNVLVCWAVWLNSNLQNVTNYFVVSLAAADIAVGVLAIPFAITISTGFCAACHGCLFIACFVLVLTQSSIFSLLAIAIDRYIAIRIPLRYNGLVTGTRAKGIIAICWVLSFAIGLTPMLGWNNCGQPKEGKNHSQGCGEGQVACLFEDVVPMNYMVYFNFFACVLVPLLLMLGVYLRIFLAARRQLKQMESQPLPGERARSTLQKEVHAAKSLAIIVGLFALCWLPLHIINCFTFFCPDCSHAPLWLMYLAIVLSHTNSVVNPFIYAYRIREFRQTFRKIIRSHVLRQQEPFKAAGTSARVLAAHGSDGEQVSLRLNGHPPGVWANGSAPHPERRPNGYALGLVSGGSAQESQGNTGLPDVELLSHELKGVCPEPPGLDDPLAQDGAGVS

SMILES	IC50 [1, 3]	IC50 [1, 4]	IC50 [1, 5]	efflux ratio at 120 min, 2 μM [2]
C[S@+]([O-])CCOc1ccc(N2CCN(CCn3c(=O)sc4c3nc(N)n3nc(-c5ccco5)nc43)CC2)c(F)c1 (single isomer, unassigned) [Compound 5]	0.4 nM	8 nM	241 nM	67
C[S@@+]([O-])CCOc1ccc(N2CCN(CCn3c(=O)sc4c3nc(N)n3nc(-c5ccco5)nc43)CC2)c(F)c1 (single isomer, unassigned) [Compound 6]	0.5 nM	8 nM	179 nM	59
C[S@@+]([O-])c1ccc(N2CCN(CCn3c(=O)sc4c3nc(N)n3nc(-c5ccco5)nc43)CC2)c(F)c1 (single isomer, unassigned) [Compound 119]	0.4 nM	–	183 nM	31
C[S@+]([O-])c1ccc(N2CCN(CCn3c(=O)sc4c3nc(N)n3nc(-c5ccco5)nc43)CC2)c(F)c1 (single isomer, unassigned) [Compound 120]	0.4 nM	–	123 nM	33
Nc1nc2c(sc(=O)n2CCN2CCN(c3ccc(O[C@H]4CC[S@@+]([O-])CC4)cc3F)CC2)c2nc(-c3ccco3)nn12 (single isomer, unassigned) [Compound 121, 5-amino-3-(2-(4-(2-fluoro-4-(((1s,4s)-1-oxidotetrahydro-2H-thiopyran-4-yl)oxy)phenyl)piperazin-1-yl)ethyl)-8-(furan-2-yl)thiazolo[5,4-e][1,2,4]triazolo[1,5-c]pyrimidin-2(3H)-one]	0.8 nM	–	232 nM	90
Nc1nc2c(sc(=O)n2CCN2CCN(c3ccc(O[C@H]4CC[S@+]([O-])CC4)cc3F)CC2)c2nc(-c3ccco3)nn12 (single isomer, unassigned) [Compound 122, 5-amino-3-(2-(4-(2-fluoro-4-(((1r,4r)-1-oxidotetrahydro-2H-thiopyran-4-yl)oxy)phenyl)piperazin-1-yl)ethyl)-8-(furan-2-yl)thiazolo[5,4-e][1,2,4]triazolo[1,5-c]pyrimidin-2(3H)-one]	0.8 nM	–	187 nM	349
Nc1nc2c(sc(=O)n2CCN2CCN(c3cc(O[C@@H]4CNC[C@H]4F)c(F)cc3F)CC2)c2nc(-c3ccco3)nn12 (stereo in doubt) [Compound 91, 5-amino-3-(2-(4-(2,4-difluoro-5-(((3R,4R)-4-fluoropyrrolidin-3-yl)oxy)phenyl)piperazin-1-yl)ethyl)-8-(furan-2-yl)thiazolo[5,4-e][1,2,4]triazolo[1,5-c]pyrimidin-2(3H)-one]	0.8 nM	–	168 nM	195
Nc1nc2c(sc(=O)n2CCN2CCN(c3ccncc3F)CC2)c2nc(-c3ccco3)nn12 [Compound 3, 5-amino-3-(2-(4-(3-fluoropyridin-4-yl)piperazin-1-yl)ethyl)-8-(furan-2-yl)thiazolo[5,4-e][1,2,4]triazolo[1,5-c]pyrimidin-2(3H)-one]	–	–	–	4
CN(CCOc1ccc(N2CCN(CCn3c(=O)sc4c3nc(N)n3nc(-c5ccco5)nc43)CC2)c(F)c1)CC(N)=O [Compound 46, 2-((2-(4-(4-(2-(5-amino-8-(furan-2-yl)-2-oxothiazolo[5,4-e][1,2,4]triazolo[1,5-c]pyrimidin-3(2H)-yl)ethyl)piperazin-1-yl)-3-fluorophenoxy)ethyl)(methyl)amino)acetamide]	–	–	–	30
Nc1nc2c(sc(=O)n2CCN2CCN(c3cc(O[C@H]4CNC[C@H]4F)c(F)cc3F)CC2)c2nc(-c3ccco3)nn12 [Compound 94, 5-amino-3-(2-(4-(2,4-difluoro-5-(((3S,4R)-4-fluoropyrrolidin-3-yl)oxy)phenyl)piperazin-1-yl)ethyl)-8-(furan-2-yl)thiazolo[5,4-e][1,2,4]triazolo[1,5-c]pyrimidin-2(3H)-one]	–	–	–	173
